Assay results taken from PMC10531759, “Key Amino Acid Residues Involved in Binding Interactions between Bactrocera minax Odorant-Binding Protein 3 (BminOBP3) and Undecanol” (Insects, 2023).
Changes are numbered by the printed parent chain. “Also recorded” adds a separate entry of the source.

Legend:
[1] = target: T1, BminOBP3 (wild-type protein) (Bactrocera minax, UniProt A0A3G2LEF2); test: Fluorescence competitive binding assay (1-NPN displacement by undecanol), wild-type protein; settings: pH 5.0 compared with pH 7.4; Figure S8 and Table S3
T1 sequence (A0A3G2LEF2 27-115): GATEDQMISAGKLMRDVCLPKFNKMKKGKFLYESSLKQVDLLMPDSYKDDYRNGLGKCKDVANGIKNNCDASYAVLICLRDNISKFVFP
Protocol: (§1) In order to explore the binding affinities of BminOBP3 and its mutants to undecanol, the binding assays were conducted on a fluorescence spectrophotometer (F-7000; Hitachi, Japan) with parameters set same as the previous study. The fluorescent probe 1-NPN and undecanol were diluted in the HPLC methanol to 1 mM, whereas the protein samples were dissolved in 20 mM Tris-HCL pH 7.4 to obtain 2 μM protein solutions.
(§2) To measure the dissociation constant (Kd) of 1-NPN to BminOBP3 and mutants, aliquots of 1 mM 1-NPN were added to the 2 μM protein solution with a final concentration of 1-NPN ranging from 0 to 22 μM, and the resulting fluorescence intensity values of the maximum fluorescence emission were recorded for the construction of binding curves and Scatchard plots. Bound 1-NPN was determined by fluorescence intensities with the assumption that the protein was 100% active, and it binds the ligands at a 1:1 stoichiometric ratio when saturated. […] The maximal fluorescence intensity values were plotted against undecanol concentrations. The inhibition constant (Ki) of each protein was calculated based on the following equation: Ki = [IC50]/(1 + [1-NPN]/K1-NPN). IC50 is the concentration of ligand halving initial fluorescence intensity; [1-NPN] is the free concentration of 1-NPN; and K1-NPN is the dissociation constant of the protein/1-NPN complex. […]

[2] = target: T2, T-OBP3 (mutant that lacks I116-P122 from the C-terminus of BminOBP3) (Bactrocera minax, UniProt A0A3G2LEF2); test: Fluorescence competitive binding assay (1-NPN displacement by undecanol), C-terminus truncated mutant; settings: compared with wild-type protein
T2 sequence (A0A3G2LEF2 27-108): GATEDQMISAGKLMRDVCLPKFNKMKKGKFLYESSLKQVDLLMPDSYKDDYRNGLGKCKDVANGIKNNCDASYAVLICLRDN
Protocol: as §1, §2

[3] = target: T3, V120A (BminOBP3-V120A mutant) (Bactrocera minax, UniProt A0A3G2LEF2, V113A); test: Fluorescence competitive binding assay (1-NPN displacement by undecanol), V120A mutant; settings: undecanol up to 36 μM
T3 sequence (A0A3G2LEF2 27-115 V113A): T1 sequence (A0A3G2LEF2 27-115) with V87A
Protocol: as §1, §2

[4] = target: T4, 3D2a (mutant that lacks F121 and P122 from the C-terminus of BminOBP3) (Bactrocera minax, UniProt A0A3G2LEF2); test: Fluorescence competitive binding assay (1-NPN displacement by undecanol), 3D2a mutant; settings: undecanol up to 36 μM
T4 sequence (A0A3G2LEF2 27-113): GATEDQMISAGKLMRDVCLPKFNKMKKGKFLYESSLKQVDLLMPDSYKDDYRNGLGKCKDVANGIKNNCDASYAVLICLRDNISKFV
Protocol: as §1, §2

[5] = system: T57A (BminOBP3-T57A mutant); test: Fluorescence binding assay with undecanol, T57A mutant; parameters: species or system Bactrocera minax; settings: Figure S7 and Table S2
Protocol: as §1
as §2, with “[1-NPN]/K1-NPN).” for “[1-NPN]/K1-NPN). IC50 is the concentration of ligand halving initial fluorescence intensity; [1-NPN] is the free concentration of 1-NPN; and K1-NPN is the dissociation constant of the protein/1-NPN complex.”
(§3) (the information regarding 13 ligands see Supplemental Data Table S4). […] Conformation 3 was an effective conformation, which is shown in Figure 2A, as it was validated by subsequent mutagenesis studies and fluorescence binding assays. […]

[6] = system: Y84A (BminOBP3-Y84A mutant); test: Fluorescence binding assay with undecanol, Y84A mutant; parameters: species or system Bactrocera minax; settings: Figure S7 and Table S2
Protocol: as §1
as §2, with “[1-NPN]/K1-NPN).” for “[1-NPN]/K1-NPN). IC50 is the concentration of ligand halving initial fluorescence intensity; [1-NPN] is the free concentration of 1-NPN; and K1-NPN is the dissociation constant of the protein/1-NPN complex.”
as §3

[7] = target: T1, BminOBP3 (wild-type protein); parameters: method as in PMID 34668560; settings: competitive fluorescence binding experiments of previous study; cited from earlier work

Which results are given for CCCCCCCCCCCO [undecanol, 1-undecanol]?
affinity between BminOBP3 and undecanol at acidic pH (in words) [1]: significant decrease; affinity for undecanol compared with BminOBP3 (in words) [2]: significant decrease; binding to undecanol (in words) [3]: completely abolished; also recorded: completely lost their binding capacity; binding to undecanol (in words) [4]: completely abolished; also recorded: completely lost their binding capacity; affinity to undecanol compared with the wild-type protein (in words) [5]: obvious increase; affinity to undecanol compared with the wild-type protein (in words) [6]: obvious increase; binding affinity of BminOBP3 among 13 ligands tested (in words) [7]: strong binding affinity
